Reference: ChEMBL document CHEMBL6083268, “Discovery of BAY 2413555, First Selective Positive Allosteric Modulator of the M2 Receptor to Restore Cardiac Autonomic Balance” (J Med Chem, 2024)
Values after ≈ are worked out from the molar mass of the structure shown.

Columns and labels:
[1] = Intrinsic clearance in rat hepatocytes measured for 90 mins by LC-MS/MS analysis; assay type: ADME, cell-based, Hepatocyte; settings: read-out: CLH (converted)
[2] = Solubility of the compound in PBS buffer at pH 6.5 measured after 24 hrs by LC-MS/MS analysis; assay type: physicochemical
[3] = Blood clearance in Wistar rat at 0.3 mg/kg, iv administered as bolus dose by LC-MS analysis; assay type: ADME, organism-based
[4] = Fraction unbound in rat plasma; assay type: ADME, cell-free
[5] = Fraction unbound in human plasma; assay type: ADME, cell-free
[6] = Volume of distribution at steady state in Wistar rat at 0.3 mg/kg, iv administered as bolus dose by LC-MS analysis; assay type: ADME, organism-based; settings: in vivo, read-out: Vdss
[7] = Apparent permeability of the compound across apical to basolateral sides in human Caco-2 cells at 2 uM measured after 2 hrs by LC-MS/MS analysis; assay type: ADME, cell-based
[8] = Oral bioavailability in Wistar rat at 1 mg/kg by LC-MS analysis; assay type: ADME, organism-based; settings: in vivo
[9] = Half-life in Wistar rat at 0.3 mg/kg, iv administered as bolus dose by LC-MS analysis; assay type: ADME, organism-based; settings: in vivo
[10] = target: T1, Muscarinic acetylcholine receptor M2 (Homo sapiens, UniProt P08172)
T1 sequence (P08172 whole entry): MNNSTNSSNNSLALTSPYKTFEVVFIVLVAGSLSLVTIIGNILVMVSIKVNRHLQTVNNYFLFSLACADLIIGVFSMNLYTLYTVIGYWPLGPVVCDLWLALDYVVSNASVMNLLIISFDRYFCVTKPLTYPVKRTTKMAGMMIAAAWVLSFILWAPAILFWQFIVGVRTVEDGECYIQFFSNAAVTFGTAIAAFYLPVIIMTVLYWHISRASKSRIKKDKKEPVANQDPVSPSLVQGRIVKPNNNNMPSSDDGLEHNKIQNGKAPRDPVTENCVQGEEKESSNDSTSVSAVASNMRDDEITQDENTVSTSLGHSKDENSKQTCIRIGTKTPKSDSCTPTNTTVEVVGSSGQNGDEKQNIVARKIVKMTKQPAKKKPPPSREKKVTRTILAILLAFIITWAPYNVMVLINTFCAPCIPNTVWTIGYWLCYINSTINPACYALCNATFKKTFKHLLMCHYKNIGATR
Description: Positive allosteric modulator activity at human M2 receptor co-expressing mouse GIRK1 and rat GIRK4 subunits in CHO-DUKX cells assessed as changes in acetylcholine-induced membrane potential hyperpolarization by FLIPR analysis

[11] = target: T1, Muscarinic acetylcholine receptor M2; test: Displacement of [3H]7-[(3R,4R)-3,4-Dihydroxypyrrolidin-1-yl]-6-fluoro-4-oxo-N-[3,3,4,4,4-pentafluorobutan-2-yl]-1-(2,4,6-trifluorophenyl)-1,4-dihydro-1,8-naphthyridine-3-carboxamide from human M2 muscarinic acetylcholine receptor expressed in CHO-S cells in presence of acetylcholine by competitive radioligand binding assay; assay type: cell-based
[12] = Efflux ratio of apparent permeability across basal to apical membrane over apical to basal membrane in human Caco-2 cells at 2 uM measured after 2 hrs by LC-MS/MS analysis
[13] = Tmax in Wistar rat at 1 mg/kg, po by LC-MS/MS analysis; assay type: ADME, organism-based; settings: in vivo
[14] = Half life in Wistar rat at 1 mg/kg, po by LC-MS/MS analysis; assay type: ADME, organism-based; settings: in vivo

Compound: O=C(NC12CC3CC(CC(C3)C1)C2)c1cn(-c2ccc(F)cc2F)c2nc(N3CCCC3)ccc2c1=O
- predicted hepatic blood clearance at […] [1]: 50 mL/min/kg

Compound: CC[C@@H](NC(=O)c1cn(-c2c(Cl)cccc2Cl)c2nc(N3C[C@@H](O)CC3=O)ccc2c1=O)C(F)(F)F
- predicted hepatic blood clearance at […] [1]: 43.3 mL/min/kg

Compound: CC[C@H](NC(=O)c1cn(-c2ncc(F)cc2F)c2nc(N3C[C@@H](O)CC3=O)ccc2c1=O)C(F)(F)F
- predicted hepatic blood clearance at […] [1]: 6.67 mL/min/kg
- solubility at 24 h [2]: 1.8 µg/mL (≈ 3.52 µM)

Compound: CC[C@H](NC(=O)c1cn(-c2c(F)cc(F)cc2F)c2nc(N3CC4CC4(O)C3)ccc2c1=O)C(F)(F)F (mixture of isomers)
- predicted hepatic blood clearance at […] [1]: 56.7 mL/min/kg
- solubility at 24 h [2]: < 0.1 µg/mL

Compound: CCC(NC(=O)c1cn(-c2c(F)cc(F)cc2F)c2nc(N3C[C@@H](O)[C@H](O)C3)ccc2c1=O)C(F)(F)C(F)(F)F (single isomer, unassigned; diastereomer 1)
- clearance [3]: 8.33 mL/min/kg
- predicted hepatic blood clearance at […] [1]: 33.3 mL/min/kg
- fraction unbound [4]: 0.013
- fraction unbound [5]: 0.018
- Vd [6]: 1.2 L/kg
- Papp A→B at 2 h, 2 µM [7]: 8.3 ×10⁻⁶ cm/s
- bioavailability [8]: 22%
- half-life [9]: 2.1 h
- solubility at 24 h [2]: 62 µg/mL (≈ 107 µM)

Compound: CC(C)(C)C(NC(=O)c1cn(-c2c(F)cc(F)cc2F)c2nc(N3C[C@@H](O)[C@H](O)C3)c(F)cc2c1=O)C(F)(F)C(F)(F)F (single isomer, unassigned; diastereomer 2)
- predicted hepatic blood clearance at […] [1]: 51.7 mL/min/kg
- Papp A→B at 2 h, 2 µM [7]: 6 ×10⁻⁶ cm/s
- solubility at 24 h [2]: 0.4 µg/mL (≈ 0.638 µM)

Compound: CC(NC(=O)c1cn(-c2c(F)cc(F)cc2F)c2nc(N3C[C@@H](O)[C@H](O)C3)ccc2c1=O)C(F)(F)C(F)(F)F (single isomer, unassigned; diastereomer 1)
- clearance [3]: 11.7 mL/min/kg
- predicted hepatic blood clearance at […] [1]: 13.3 mL/min/kg
- Vd [6]: 2.5 L/kg
- Papp A→B at 2 h, 2 µM [7]: 19.3 ×10⁻⁶ cm/s
- bioavailability [8]: 21%
- half-life [9]: 2.1 h
- solubility at 24 h [2]: 54.7 µg/mL (≈ 96.6 µM)

Compound: CC[C@@H](NC(=O)c1cn(-c2c(Cl)cc(F)cc2Cl)c2nc(N3C[C@@H](O)CC3=O)ccc2c1=O)C(F)(F)F
- predicted hepatic blood clearance at […] [1]: 31.7 mL/min/kg
- solubility at 24 h [2]: < 0.1 µg/mL

Compound: CC[C@@H](NC(=O)c1cn(-c2ccccc2Cl)c2nc(N3C[C@@H](O)CC3=O)ccc2c1=O)C(F)(F)F
- predicted hepatic blood clearance at […] [1]: 43.3 mL/min/kg
- solubility at 24 h [2]: 0.3 µg/mL (≈ 0.59 µM)

Compound: CC[C@@H](NC(=O)c1cn(-c2ccccc2F)c2nc(N3C[C@@H](O)CC3=O)ccc2c1=O)C(F)(F)F
- predicted hepatic blood clearance at […] [1]: 31.7 mL/min/kg
- solubility at 24 h [2]: 1.1 µg/mL (≈ 2.23 µM)

Compound: O=C(NC12CC3CC(CC(C3)C1)C2)c1cn(-c2ccc(F)cc2F)c2nc(N3CCCC3=O)ccc2c1=O
- predicted hepatic blood clearance at […] [1]: 60 mL/min/kg

Compound: O=C(Nc1c(Cl)cccc1Cl)c1cn(-c2ccc(F)cc2F)c2nc(N3C[C@@H](O)CC3=O)ccc2c1=O
- predicted hepatic blood clearance at […] [1]: 26.7 mL/min/kg

Compound: O=C(NC1(C(F)(F)F)CCC1)c1cn(-c2c(F)cc(F)cc2F)c2nc(N3C[C@@H](O)[C@H](O)C3)ccc2c1=O
- predicted hepatic blood clearance at […] [1]: 58.3 mL/min/kg
- solubility at 24 h [2]: 0.9 µg/mL (≈ 1.66 µM)

Compound: COc1nc2sc(C(=O)NC3CC3)c(N)c2c(C)c1Cl
- EC50 [10]: 2.4 µM
- Ki [11]: 3 µM

Compound: CC[C@H](NC(=O)c1cn(-c2c(F)cc(F)cc2F)c2nc(N3C[C@@H](O)[C@H](O)C3)ccc2c1=O)C(F)(F)F
- clearance [3]: 25 mL/min/kg
- predicted hepatic blood clearance at […] [1]: 21.7 mL/min/kg
- Vd [6]: 3.5 L/kg
- Papp A→B at 2 h, 2 µM [7]: 1.2 ×10⁻⁶ cm/s
- half-life [9]: 1.6 h
- solubility at 24 h [2]: 13 µg/mL (≈ 24.5 µM)

Compound: CC(C)(C)[C@H](NC(=O)c1cn(-c2c(F)cc(F)cc2F)c2nc(N3C[C@@H](O)[C@H](O)C3)ccc2c1=O)C(F)(F)F
- predicted hepatic blood clearance at […] [1]: 41.7 mL/min/kg
- solubility at 24 h [2]: 1.4 µg/mL (≈ 2.51 µM)

Compound: CC[C@H](NC(=O)c1cn(-c2c(F)cc(F)cc2F)c2nc(N3C[C@@H](O)CC3=O)ccc2c1=O)C(F)(F)F
- clearance [3]: 20 mL/min/kg
- predicted hepatic blood clearance at […] [1]: 16.7 mL/min/kg
- fraction unbound [4]: 0.02
- fraction unbound [5]: 0.03
- Vd [6]: 3.5 L/kg
- Papp A→B at 2 h, 2 µM [7]: 46.2 ×10⁻⁶ cm/s
- efflux ratio at 2 h, 2 µM [12]: 0.6
- bioavailability [8]: 91%
- half-life [9]: 3.4 h
- solubility at 24 h [2]: 0.4 µg/mL (≈ 0.757 µM)

Compound: CC[C@H](NC(=O)c1cn(-c2c(F)cccc2F)c2nc(N3C[C@@H](O)CC3=O)ccc2c1=O)C(F)(F)F
- predicted hepatic blood clearance at […] [1]: 25 mL/min/kg
- solubility at 24 h [2]: 1.5 µg/mL (≈ 2.94 µM)

Compound: O=C(N[C@@H](C1CC1)C(F)(F)F)c1cn(-c2c(F)cc(F)cc2F)c2nc(N3C[C@@H](O)[C@H](O)C3)ccc2c1=O
- clearance [3]: 15 mL/min/kg
- predicted hepatic blood clearance at […] [1]: 18.3 mL/min/kg
- fraction unbound [4]: 0.025
- fraction unbound [5]: 0.033
- Vd [6]: 3.7 L/kg
- Papp A→B at 2 h, 2 µM [7]: 12.9 ×10⁻⁶ cm/s
- efflux ratio at 2 h, 2 µM [12]: 8
- bioavailability [8]: 19%
- half-life [9]: 4.6 h
- solubility at 24 h [2]: 12.5 µg/mL (≈ 23 µM)

Compound: CC[C@@H](NC(=O)c1cn(-c2ccc(F)cc2F)c2nc(N3C[C@@H](O)CC3=O)ccc2c1=O)C(F)(F)F
- clearance [3]: 26.7 mL/min/kg
- predicted hepatic blood clearance at […] [1]: 22.7 mL/min/kg
- fraction unbound [4]: 0.008
- Vd [6]: 0.8 L/kg
- Papp A→B at 2 h, 2 µM [7]: 45.6 ×10⁻⁶ cm/s
- efflux ratio at 2 h, 2 µM [12]: 0.9
- bioavailability [8]: 29%
- half-life [9]: 0.8 h
- solubility at 24 h [2]: 1.9 µg/mL (≈ 3.72 µM)

Compound: O=C(NC1(C(F)(F)F)CCCC1)c1cn(-c2c(F)cc(F)cc2F)c2nc(N3C[C@@H](O)[C@H](O)C3)ccc2c1=O
- predicted hepatic blood clearance at […] [1]: 60 mL/min/kg

Compound: CC[C@@H](NC(=O)c1cn(-c2c(F)cccc2F)c2nc(N3C[C@@H](O)CC3=O)ccc2c1=O)C(F)(F)F
- clearance [3]: 21.7 mL/min/kg
- predicted hepatic blood clearance at […] [1]: 21.7 mL/min/kg
- fraction unbound [4]: 0.009
- fraction unbound [5]: 0.023
- Vd [6]: 1.7 L/kg
- Papp A→B at 2 h, 2 µM [7]: 48.2 ×10⁻⁶ cm/s
- efflux ratio at 2 h, 2 µM [12]: 0.8
- bioavailability [8]: 29%
- half-life [9]: 1.2 h
- solubility at 24 h [2]: 2.9 µg/mL (≈ 5.68 µM)

Compound: CCC(NC(=O)c1cn(-c2c(F)cc(F)cc2F)c2nc(N3C[C@@H](O)[C@H](O)C3)c(F)cc2c1=O)C(F)(F)C(F)(F)F (single isomer, unassigned; diastereomer 1)
- clearance [3]: 23.3 mL/min/kg
- predicted hepatic blood clearance at […] [1]: 20 mL/min/kg
- fraction unbound [4]: 0.006
- Tmax [13]: 6 h
- Vd [6]: 3 L/kg
- Papp A→B at 2 h, 2 µM [7]: 11.3 ×10⁻⁶ cm/s
- bioavailability [8]: 48%
- half-life [9]: 1.8 h
- solubility at 24 h [2]: 11.2 µg/mL (≈ 18.7 µM)
- half-life [14]: 4.2 h

Compound: CN(C)c1ccc2c(=O)c(C(=O)NC34CC5CC(CC(C5)C3)C4)cn(-c3ccc(F)cc3F)c2n1
- predicted hepatic blood clearance at […] [1]: 41.7 mL/min/kg

Compound: CC[C@@H](NC(=O)c1cn(-c2c(F)cc(F)cc2F)c2nc(N3C[C@@H](O)CC3=O)ccc2c1=O)C(F)(F)F
- clearance [3]: 56.7 mL/min/kg
- predicted hepatic blood clearance at […] [1]: 31.7 mL/min/kg
- Vd [6]: 2.3 L/kg
- Papp A→B at 2 h, 2 µM [7]: 43.4 ×10⁻⁶ cm/s
- efflux ratio at 2 h, 2 µM [12]: 0.6
- half-life [9]: 0.9 h
- solubility at 24 h [2]: 2.2 µg/mL (≈ 4.16 µM)
